Results: publication PMC12494099, “Discovery and Characterization of Novel IKZF1/3 Glue Degraders against Multiple Hematological Cancer Cell Lines” (Oncology Research, 2025)

Key:
Assay type in all cases: cell-based
MV-4-11 [1] = experiment: Cell viability (CCK-8) assay; conditions: Homo sapiens, 96 h, CCK-8
Protocol: (§1) The plated at a density of 15,000 cells per well, and each well contained 100 µL of medium. Subsequently, different compounds (MGD-AX, MGD-BX, MGD-CX) were added to each well. […] To evaluate the antiproliferative effects of these compounds, the Cell Counting Kit-8 (CCK-8, #CX007, Epizyme, Shanghai, China) was used. All procedures were carried out in strict accordance with the manufacturer’s instructions (Dojindo Laboratories, Mamoto Ken, Japan).

NCI-H929 = experiment: Cell viability (CCK-8) assay; conditions: Homo sapiens, NCI-H929, 96 h
Protocol: as §1

Ocl-Ly3 = experiment: Cell viability (CCK-8) assay; conditions: 96 h, CCK-8
Protocol: as §1

[2] = system: NCI-H929 (MM), MV-4-11(AML), and Ocl-Ly3 (DLBCL) cells; experiment: Cell viability (CCK-8) assay, statements on the whole three-line panel; conditions: for antiproliferative activity (in words): compared with the prototypical IMiDs
Protocol: Multiple cell lines (NCI-H929, OPM-2, U937, Ocl-Ly3, RPMI-8226, MOLM-13, Skm-1, MUTZ-1, SU-DHL-4, TMD8, U2932, WSU-DLCL-2, MV-4-11 and KG-1 cells) were plated into 96-well plates. The plated at a density of 15,000 cells per well, and each well contained 100 µL of medium. Subsequently, different compounds (MGD-AX, MGD-BX, MGD-CX) were added to each well. These compounds’ concentrations were set at 0, 0.01, 0.033, 0.1, 0.33, 1, 3.3, 10 and 33 μM, and the cells were incubated with the compounds for 96 h. To evaluate the antiproliferative effects of these compounds, the Cell Counting Kit-8 (CCK-8, #CX007, Epizyme, Shanghai, China) was used. All procedures were carried out in strict accordance with the manufacturer’s instructions (Dojindo Laboratories, Mamoto Ken, Japan). The half maximal inhibitory concentrations (IC50) values, which represent the concentrations of the test compounds that can inhibit 50% of cell activity, were calculated using GraphPad Prism 8.0 (GraphPad Software Inc., San Diego, CA, USA).

KG-1 = experiment: Cell viability (CCK-8) assay; conditions: Homo sapiens, KG-1, 96 h, read-out: IC50 (μM) KG-1
Protocol: as §1

MOLM-13 = experiment: Cell viability (CCK-8) assay; conditions: Homo sapiens, MOLM-13, 96 h, read-out: IC50 (μM) MOLM-13
Protocol: as §1

MUTZ-1 = experiment: Cell viability (CCK-8) assay; conditions: 96 h, read-out: IC50 (μM) MUTZ-1
Protocol: as §1

OPM-2 = experiment: Cell viability (CCK-8) assay; conditions: Homo sapiens, OPM-2, 96 h, read-out: IC50 (μM) OPM-2
Protocol: as §1

RPMI-8226 = experiment: Cell viability (CCK-8) assay; conditions: Homo sapiens, RPMI-8226, 96 h, read-out: IC50 (μM) RPMI-8226
Protocol: as §1

SU-DHL-4 = experiment: Cell viability (CCK-8) assay; conditions: Homo sapiens, SU-DHL-4, 96 h, read-out: IC50 (μM) SU-DHL-4
Protocol: as §1

Skm-1 = experiment: Cell viability (CCK-8) assay; conditions: Homo sapiens, SKM-1, 96 h, read-out: IC50 (μM) Skm-1
Protocol: as §1

TMD8 = experiment: Cell viability (CCK-8) assay; conditions: Homo sapiens, TMD8, 96 h, read-out: IC50 (μM) TMD8
Protocol: as §1

U2932 = experiment: Cell viability (CCK-8) assay; conditions: Homo sapiens, U2932, 96 h, read-out: IC50 (μM) U2932
Protocol: as §1

U937 = experiment: Cell viability (CCK-8) assay; conditions: Homo sapiens, U-937, 96 h, read-out: IC50 (μM) U937
Protocol: as §1

WSU-DLCL-2 = experiment: Cell viability (CCK-8) assay; conditions: Homo sapiens, WSUDLCL2, 96 h, read-out: IC50 (μM) WSU-DLCL-2
Protocol: as §1

IKZF1-HiBiT = biological target: T1, IKZF1-HiBiT (Homo sapiens, UniProt Q13422+Q96SW2); experiment: Quantitative degradation assay using the HiBiT system (HEK293T); conditions: HEK-293T; HEK293T IKZF1-HiBiT, 24 h; read-out: maximal degradation (Dmax) on IKZF1
T1 construct: expressed in transfected cells; host or cells: HEK293T
T1 sequence (Q13422 whole entry): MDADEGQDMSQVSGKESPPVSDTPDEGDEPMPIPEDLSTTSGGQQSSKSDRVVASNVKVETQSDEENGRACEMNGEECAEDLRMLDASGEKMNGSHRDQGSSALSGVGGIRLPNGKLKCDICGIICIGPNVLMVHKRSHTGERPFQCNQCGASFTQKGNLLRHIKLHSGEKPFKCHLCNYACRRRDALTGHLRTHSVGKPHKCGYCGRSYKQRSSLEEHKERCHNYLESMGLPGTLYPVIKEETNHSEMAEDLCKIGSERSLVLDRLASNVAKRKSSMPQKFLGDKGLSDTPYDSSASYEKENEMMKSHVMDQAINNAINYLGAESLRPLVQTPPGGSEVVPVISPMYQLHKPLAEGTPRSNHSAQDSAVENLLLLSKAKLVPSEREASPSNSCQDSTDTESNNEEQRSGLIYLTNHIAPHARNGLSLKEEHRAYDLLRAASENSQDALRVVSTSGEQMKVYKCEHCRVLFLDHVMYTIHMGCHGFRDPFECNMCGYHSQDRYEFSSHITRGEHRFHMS
T1 sequence (Q96SW2 whole entry): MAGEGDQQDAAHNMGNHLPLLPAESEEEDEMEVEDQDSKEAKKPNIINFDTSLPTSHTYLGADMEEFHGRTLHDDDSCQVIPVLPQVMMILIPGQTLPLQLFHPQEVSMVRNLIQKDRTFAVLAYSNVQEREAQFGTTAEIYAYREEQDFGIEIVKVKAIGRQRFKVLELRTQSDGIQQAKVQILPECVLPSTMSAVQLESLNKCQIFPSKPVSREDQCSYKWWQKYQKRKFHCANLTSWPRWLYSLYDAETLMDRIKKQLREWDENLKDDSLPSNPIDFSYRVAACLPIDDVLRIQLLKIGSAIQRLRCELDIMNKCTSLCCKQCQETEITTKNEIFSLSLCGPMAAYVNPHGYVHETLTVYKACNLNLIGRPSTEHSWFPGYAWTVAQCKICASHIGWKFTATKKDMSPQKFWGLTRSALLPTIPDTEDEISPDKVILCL
T1 sequence (Q16531 whole entry partner): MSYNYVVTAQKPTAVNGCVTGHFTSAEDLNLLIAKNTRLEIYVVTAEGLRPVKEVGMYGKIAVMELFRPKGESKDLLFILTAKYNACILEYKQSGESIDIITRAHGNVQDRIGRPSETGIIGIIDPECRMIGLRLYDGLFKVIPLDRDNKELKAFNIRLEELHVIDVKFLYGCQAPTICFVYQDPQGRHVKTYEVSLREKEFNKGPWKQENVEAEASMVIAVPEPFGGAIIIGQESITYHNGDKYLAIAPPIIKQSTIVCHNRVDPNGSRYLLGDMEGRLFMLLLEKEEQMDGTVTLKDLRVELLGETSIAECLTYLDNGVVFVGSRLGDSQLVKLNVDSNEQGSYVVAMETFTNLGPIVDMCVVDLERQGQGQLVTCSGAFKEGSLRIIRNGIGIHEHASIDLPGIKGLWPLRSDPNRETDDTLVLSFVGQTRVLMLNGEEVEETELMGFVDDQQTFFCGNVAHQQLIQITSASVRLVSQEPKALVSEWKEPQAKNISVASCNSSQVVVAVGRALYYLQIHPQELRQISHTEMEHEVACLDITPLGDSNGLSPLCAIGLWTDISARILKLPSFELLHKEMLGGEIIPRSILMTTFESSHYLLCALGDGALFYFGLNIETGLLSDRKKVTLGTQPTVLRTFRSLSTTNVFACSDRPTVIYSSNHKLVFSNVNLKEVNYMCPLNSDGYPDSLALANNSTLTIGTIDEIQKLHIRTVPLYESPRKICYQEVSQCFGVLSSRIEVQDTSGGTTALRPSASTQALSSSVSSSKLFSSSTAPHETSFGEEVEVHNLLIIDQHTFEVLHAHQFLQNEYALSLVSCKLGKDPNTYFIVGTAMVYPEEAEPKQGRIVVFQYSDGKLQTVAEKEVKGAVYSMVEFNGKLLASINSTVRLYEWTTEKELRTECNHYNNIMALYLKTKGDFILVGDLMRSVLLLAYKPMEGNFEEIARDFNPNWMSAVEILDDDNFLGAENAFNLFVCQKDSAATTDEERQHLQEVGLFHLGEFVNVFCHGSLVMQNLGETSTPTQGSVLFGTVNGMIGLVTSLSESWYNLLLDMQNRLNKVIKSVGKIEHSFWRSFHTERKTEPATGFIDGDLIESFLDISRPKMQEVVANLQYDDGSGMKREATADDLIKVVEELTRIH
Protocol: (§2) An in vitro quantitative degradation assay utilizing the HiBiT system was carried out as previously described. To evaluate the degradation of IKZF1, IKZF2, and IKZF3 proteins, HEK293T cell lines stably expressing IKZF1-, IKZF2-, IKZF3-, GSPT1- or CK1α-HiBiT were cultured in 96-well plates at 12,000 cells per well. […] After the treatment, cell lysis was carried out using the Nano-Glo HiBiT Lytic Detection System (#N3040, Promega). All lysis operations were strictly carried out according to the manufacturer’s specific protocol. Then, the SpectraMax iD3 instrument (Molecular Devices, San Jose, CA, USA) was used to detect the luminescent signals released by the HiBiT-tagged neosubstrates.

IKZF3-HiBiT = biological target: T2, IKZF3-HiBiT (Homo sapiens, UniProt Q96SW2+Q9UKT9); experiment: as above; conditions: HEK-293T; HEK293T IKZF3-HiBiT, 24 h; read-out: maximal degradation (Dmax) on IKZF3
T2 construct: expressed in transfected cells; host or cells: HEK293T
T2 sequence (Q9UKT9 whole entry): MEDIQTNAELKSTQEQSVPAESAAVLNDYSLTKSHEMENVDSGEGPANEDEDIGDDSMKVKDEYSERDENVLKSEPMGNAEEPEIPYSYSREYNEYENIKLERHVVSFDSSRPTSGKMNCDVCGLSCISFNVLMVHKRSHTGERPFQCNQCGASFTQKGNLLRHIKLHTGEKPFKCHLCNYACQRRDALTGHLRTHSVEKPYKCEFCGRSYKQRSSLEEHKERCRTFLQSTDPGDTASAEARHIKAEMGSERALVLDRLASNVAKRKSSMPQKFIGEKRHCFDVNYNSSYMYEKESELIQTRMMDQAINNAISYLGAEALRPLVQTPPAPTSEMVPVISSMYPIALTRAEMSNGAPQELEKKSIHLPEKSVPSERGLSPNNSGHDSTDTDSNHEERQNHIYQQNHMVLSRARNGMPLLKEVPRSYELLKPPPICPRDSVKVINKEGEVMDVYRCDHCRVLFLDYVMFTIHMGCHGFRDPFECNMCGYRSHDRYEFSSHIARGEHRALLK
T2 sequence (Q96SW2 whole entry): as the sequence (Q96SW2 whole entry) above
T2 sequence (Q16531 whole entry partner): as the sequence (Q16531 whole entry partner) above
Protocol: as §2

MV-4-11 [3] = experiment: Cell apoptosis assay (Annexin V flow cytometry); conditions: MV-4-11, 10 µM
Protocol: (§3) Cells (NCI-H929 and MV-4-11) were seeded at a density of 1 × 10^6 cells per well into 6-well dishes. […] Apoptosis was assessed using an Annexin V-FITC kit (#ab14085; Abcam, MA, USA) on a FACS Calibur Flow Cytometer (Becton Dickinson, Franklin Lakes, NJ, USA). For cell cycle analysis, cells were fixed in 75% ethanol (−20°C/overnight), washed with PBS (pH = 7.2–7.4, 1×), treated with RNase A (0.2 mg/mL, 37°C/30 min), stained with PI (10 μg/mL), and analyzed on the same instrument. Finally, the samples were analyzed using a FACS Calibur Flow Cytometer.

[4] = system: control vector NCI-H929 cells; experiment: Cell apoptosis assay, control vector cells
Protocol: […] NCI-H929 and MV-4-11 cells were seeded at a density of 1 × 10^6 cells/well in 6-well tissue culture-treated plates. According to the manufacturer’s protocol (Santa Cruz Biotechnology, Inc, Dallas, TX, USA), CRBN CRISPR/Cas9 knockout Plasmid (#sc-412142), CRBN HDR plasmid (#sc-412142-HDR), UltraCruz® Transfection Reagent (#sc-395739) were pre-mixed in Plasmid Transfection Medium (#sc-108062) at a 1:1:2 mass ratio, and cells were transiently transfected in a 37°C, 5% CO2 incubator. After 72 h of infection, the medium was replaced with complete medium containing 3 μg/mL puromycin for 5–7 days. On day 7, GFP-positive cells were sorted as single cells into 96-well plates. Isolated single-cell clones were screened via western blot analysis, using wild-type NCI-H929 or MV-4-11 cells as positive controls.
as §3

SMILES	IC50 (MV-4-11 [1]; MV4-11, 96 h)	IC50 (NCI-H929)	IC50 (Ocl-Ly3)	antiproliferative activity (in words) [2]	also measured
O=C1CCC(NC(=O)c2cccc(C(=O)N3CCCC3)c2)C(=O)N1 (stereo not shown) [MGD-A10, N-(2,6-dioxopiperidin-3-yl)-3-(pyrrolidine-1-carbonyl)benzamide]	8.34 ± 0.79 µM	14.2 ± 1.36 µM	> 33 µM	mild activity	
O=C1CCC(NC(=O)c2cccc(C(=O)N3CCCCC3)c2)C(=O)N1 (stereo not shown) [MGD-A11, N-(2,6-dioxopiperidin-3-yl)-3-(piperidine-1-carbonyl)benzamide]	5.47 ± 0.52 µM	8.33 ± 0.8 µM	23 ± 2.19 µM	mild activity	
CC1CCN(C(=O)c2cccc(C(=O)NC3CCC(=O)NC3=O)c2)CC1 (stereo not shown) [MGD-A12, N-(2,6-dioxopiperidin-3-yl)-3-(4-methylpiperidine-1-carbonyl)benzamide]	14.3 ± 1.36 µM	11.9 ± 1.14 µM	15.3 ± 1.46 µM		fold reduction in potency compared with MGD-A5 ([2]; NCI-H929, MV-4-11 and Ocl-Ly3 cells): more than 3 fold
O=C1CCC(NC(=O)c2cccc(C(=O)N3CCOCC3)c2)C(=O)N1 (stereo not shown) [MGD-A14, N-(2,6-dioxopiperidin-3-yl)-3-(morpholine-4-carbonyl)benzamide]	5.1 ± 0.49 µM	7.43 ± 0.71 µM	10.6 ± 1.01 µM	mild activity	
Nc1cccc2c1C(=O)N(C1CCC(=O)NC1=O)C2=O (stereo not shown) [Pomalidomide, reference compound]		2.18 ± 0.21 µM	18.3 ± 1.74 µM		IC50 (KG-1): 17.2 µM; IC50 (MOLM-13): 12.4 µM; IC50 (MUTZ-1): 17.3 µM; IC50 (MV-4-11 [1]; MV4-11): 16.1 ± 1.54 µM; IC50 (OPM-2): 0.204 µM; IC50 (RPMI-8226): 5.21 µM; IC50 (SU-DHL-4): 22.4 µM; IC50 (Skm-1): 20.1 µM; IC50 (TMD8): 15.3 µM; IC50 (U2932): 13.7 µM; IC50 (U937): 13.8 µM; IC50 (WSU-DLCL-2): 18.1 µM; Dmax (IKZF1-HiBiT): 76.2%; Dmax (IKZF3-HiBiT): 69.4%; apoptosis rate (MV-4-11 [3]): 15.5%; apoptosis (in words) [4]: induced significant apoptosis
